The values below are quoted from earlier work in US20220288091A1, “Method for Improving Insulin Sensitivity” (priority 2019, published 2022).

What all share (conditions): Miner et al.; cited from earlier work
One series concerns the target T1, GR (Homo sapiens, UniProt P04150).
T1 sequence (P04150 1-777): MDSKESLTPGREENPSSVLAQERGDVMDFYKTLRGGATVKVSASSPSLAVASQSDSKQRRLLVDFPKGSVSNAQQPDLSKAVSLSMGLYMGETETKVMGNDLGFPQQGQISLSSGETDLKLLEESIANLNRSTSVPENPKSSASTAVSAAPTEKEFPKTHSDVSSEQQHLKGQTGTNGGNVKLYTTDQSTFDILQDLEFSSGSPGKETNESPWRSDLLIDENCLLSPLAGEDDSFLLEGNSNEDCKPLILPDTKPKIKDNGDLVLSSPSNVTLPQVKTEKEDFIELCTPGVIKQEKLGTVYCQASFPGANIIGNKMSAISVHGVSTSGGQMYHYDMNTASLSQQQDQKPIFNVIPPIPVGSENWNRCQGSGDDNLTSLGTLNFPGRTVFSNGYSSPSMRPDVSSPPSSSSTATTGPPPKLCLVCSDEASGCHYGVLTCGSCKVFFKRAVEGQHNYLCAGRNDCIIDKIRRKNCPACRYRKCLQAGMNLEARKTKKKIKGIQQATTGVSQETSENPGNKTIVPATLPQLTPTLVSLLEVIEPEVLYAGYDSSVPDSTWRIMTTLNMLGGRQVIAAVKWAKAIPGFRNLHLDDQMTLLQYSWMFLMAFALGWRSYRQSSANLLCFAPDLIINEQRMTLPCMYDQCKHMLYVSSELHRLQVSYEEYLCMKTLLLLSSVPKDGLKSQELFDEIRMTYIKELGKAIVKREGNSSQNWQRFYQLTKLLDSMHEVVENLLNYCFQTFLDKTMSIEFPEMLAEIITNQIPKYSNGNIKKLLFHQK

Series [1] has as its target T2, receptors for mineralocorticoids (Homo sapiens, UniProt P08235).
T2 sequence (P08235 1-984): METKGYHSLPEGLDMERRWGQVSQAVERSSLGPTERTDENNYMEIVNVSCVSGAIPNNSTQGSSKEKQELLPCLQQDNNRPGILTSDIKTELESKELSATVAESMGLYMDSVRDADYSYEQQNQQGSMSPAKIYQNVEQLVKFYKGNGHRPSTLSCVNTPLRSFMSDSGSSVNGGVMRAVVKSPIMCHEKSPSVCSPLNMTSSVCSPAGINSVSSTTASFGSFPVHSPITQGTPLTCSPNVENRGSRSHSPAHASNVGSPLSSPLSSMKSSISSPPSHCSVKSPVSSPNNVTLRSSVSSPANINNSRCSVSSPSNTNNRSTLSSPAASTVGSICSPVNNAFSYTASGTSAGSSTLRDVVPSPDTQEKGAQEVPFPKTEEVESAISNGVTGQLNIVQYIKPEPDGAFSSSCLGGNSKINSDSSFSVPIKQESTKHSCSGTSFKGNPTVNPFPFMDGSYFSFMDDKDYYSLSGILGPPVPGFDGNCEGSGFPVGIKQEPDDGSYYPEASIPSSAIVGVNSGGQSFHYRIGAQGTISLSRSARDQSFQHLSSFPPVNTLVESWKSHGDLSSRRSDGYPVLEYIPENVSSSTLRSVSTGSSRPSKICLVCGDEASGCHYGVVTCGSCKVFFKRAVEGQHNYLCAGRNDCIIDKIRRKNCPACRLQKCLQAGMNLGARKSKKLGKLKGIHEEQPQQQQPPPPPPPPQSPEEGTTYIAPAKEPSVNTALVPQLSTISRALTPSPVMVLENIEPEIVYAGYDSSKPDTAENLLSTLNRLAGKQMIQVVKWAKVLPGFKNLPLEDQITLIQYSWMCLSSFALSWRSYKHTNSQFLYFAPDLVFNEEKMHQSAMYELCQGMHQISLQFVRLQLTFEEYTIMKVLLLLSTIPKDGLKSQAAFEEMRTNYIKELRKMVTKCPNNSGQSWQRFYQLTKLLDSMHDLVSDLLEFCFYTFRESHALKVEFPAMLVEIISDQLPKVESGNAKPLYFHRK

Another series deals with T3, receptors for androgens (Homo sapiens, UniProt P10275).
T3 sequence (P10275 1-920): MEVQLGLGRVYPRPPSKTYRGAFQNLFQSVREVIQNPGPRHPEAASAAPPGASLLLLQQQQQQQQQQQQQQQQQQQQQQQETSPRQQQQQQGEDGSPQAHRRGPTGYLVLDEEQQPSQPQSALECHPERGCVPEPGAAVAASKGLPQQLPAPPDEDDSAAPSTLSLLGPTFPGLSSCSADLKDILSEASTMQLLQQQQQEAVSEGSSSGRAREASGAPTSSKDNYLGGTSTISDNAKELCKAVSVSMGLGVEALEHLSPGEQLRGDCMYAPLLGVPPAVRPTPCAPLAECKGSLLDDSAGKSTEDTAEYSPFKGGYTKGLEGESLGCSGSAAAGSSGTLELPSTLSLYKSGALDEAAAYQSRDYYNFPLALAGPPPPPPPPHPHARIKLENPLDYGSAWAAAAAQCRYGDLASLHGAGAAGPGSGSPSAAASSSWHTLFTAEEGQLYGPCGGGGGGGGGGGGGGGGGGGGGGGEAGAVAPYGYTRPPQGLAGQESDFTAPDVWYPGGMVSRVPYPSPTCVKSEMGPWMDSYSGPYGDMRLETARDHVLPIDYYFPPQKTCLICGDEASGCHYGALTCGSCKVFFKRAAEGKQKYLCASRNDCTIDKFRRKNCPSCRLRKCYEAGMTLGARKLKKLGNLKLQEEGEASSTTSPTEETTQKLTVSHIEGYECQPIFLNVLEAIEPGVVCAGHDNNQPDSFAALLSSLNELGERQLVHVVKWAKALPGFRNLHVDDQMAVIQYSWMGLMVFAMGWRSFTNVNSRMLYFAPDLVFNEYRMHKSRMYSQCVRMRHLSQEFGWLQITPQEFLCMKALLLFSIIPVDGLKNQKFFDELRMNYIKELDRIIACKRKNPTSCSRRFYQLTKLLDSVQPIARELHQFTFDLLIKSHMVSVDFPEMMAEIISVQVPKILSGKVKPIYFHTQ

A further series has as its system receptors for estrogens.
A further series concerns the target T4, receptors for progestins (Homo sapiens, UniProt P06401).
T4 sequence (P06401 1-933): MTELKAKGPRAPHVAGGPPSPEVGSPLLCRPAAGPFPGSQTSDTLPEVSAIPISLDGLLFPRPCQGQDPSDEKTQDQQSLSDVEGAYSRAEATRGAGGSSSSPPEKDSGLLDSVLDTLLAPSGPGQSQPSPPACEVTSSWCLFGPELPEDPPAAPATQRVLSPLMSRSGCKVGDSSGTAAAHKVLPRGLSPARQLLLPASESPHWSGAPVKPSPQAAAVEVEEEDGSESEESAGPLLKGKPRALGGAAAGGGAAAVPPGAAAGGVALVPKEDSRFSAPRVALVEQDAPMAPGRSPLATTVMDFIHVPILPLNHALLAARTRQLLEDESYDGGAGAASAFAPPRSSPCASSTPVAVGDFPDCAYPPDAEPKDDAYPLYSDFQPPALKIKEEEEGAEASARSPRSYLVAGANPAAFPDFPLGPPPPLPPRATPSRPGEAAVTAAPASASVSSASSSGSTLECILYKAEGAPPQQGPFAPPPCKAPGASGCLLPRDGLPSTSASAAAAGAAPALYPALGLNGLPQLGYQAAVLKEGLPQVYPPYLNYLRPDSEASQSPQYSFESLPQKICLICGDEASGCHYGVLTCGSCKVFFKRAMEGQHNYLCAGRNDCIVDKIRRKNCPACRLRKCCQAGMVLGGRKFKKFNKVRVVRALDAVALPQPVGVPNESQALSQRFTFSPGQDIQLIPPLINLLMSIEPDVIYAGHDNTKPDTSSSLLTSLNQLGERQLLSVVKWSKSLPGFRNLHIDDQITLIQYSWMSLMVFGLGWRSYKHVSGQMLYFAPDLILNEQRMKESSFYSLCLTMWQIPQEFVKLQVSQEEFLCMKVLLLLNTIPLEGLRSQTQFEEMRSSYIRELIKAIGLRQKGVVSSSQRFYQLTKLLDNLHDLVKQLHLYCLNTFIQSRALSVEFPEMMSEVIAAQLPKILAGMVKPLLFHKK

On to `CN(C)c1ccc(C(c2ccc(N(C)C)cc2)c2cc([N+](=O)[O-])ccc2Cl)cc1` [[bis(4-N,N-dimethylaminophenyl)(2-chloro-5-nitrophenyl)methane]], for which the “Affinity for the GR” value at GR was “nanomolar affinity”. The “Affinity for mineralocorticoid receptor” value in series [1] is given as “no detectable affinity”. For the same compound, the “Affinity for androgen receptor” value on receptors for androgens is listed as “no detectable affinity”. The “Affinity for estrogen receptor” value in the series with receptors for estrogens was “no detectable affinity”. Also, the “Affinity for progestin receptor” value on receptors for progestins is recorded as “no detectable affinity”.
